We go through three molecules from ChEMBL document CHEMBL1201862, “PubChem BioAssay data set” (2004).

The target in test [1] is Mitogen-activated protein kinase 12 (Homo sapiens, UniProt P53778). The class given is functional.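 Also: measured as one member of a kinome-wide kinase profiling panel.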
Test [2] addresses Mitogen-activated protein kinase kinase kinase kinase 2 (Homo sapiens, UniProt Q12851). The class given is functional.
For test [3], the target named is Homeodomain-interacting protein kinase 4 (Homo sapiens, UniProt Q8NE63). The class given is functional.
In test [4] the target is Serine/threonine-protein kinase TBK1 (Homo sapiens, UniProt Q9UHD2). Description: Navigating the Kinome. Panel member name: TBK1. The class given is functional.
The target of test [5] is cAMP-dependent protein kinase catalytic subunit PRKX (Homo sapiens, UniProt P51817). In kind it is functional.
Test [6] deals with Tyrosine-protein kinase Lck (Homo sapiens, UniProt P06239). In kind it is functional.
Test [7] addresses Dual specificity tyrosine-phosphorylation-regulated kinase 3 (Homo sapiens, UniProt O43781). In kind it is functional.
Test [8] deals with Serine/threonine-protein kinase BRSK1 (Homo sapiens, UniProt Q8TDC3). In kind it is functional.
Test [9] deals with Serine/threonine-protein kinase Nek2 (Homo sapiens, UniProt P51955). The class given is functional.
The target in test [10] is Serine/threonine-protein kinase pim-1 (Homo sapiens, UniProt P11309). The class given is functional.
The target of test [11] is Tyrosine-protein kinase Srms (Homo sapiens, UniProt Q9H3Y6). The class given is functional.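 Also: SRMS measured as one member of a kinome-wide kinase profiling panel.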
The target of test [12] is Dual specificity mitogen-activated protein kinase kinase 2 (Homo sapiens, UniProt P36507). Description: Navigating the Kinome. Panel member name: MAP2K2. The class given is functional.
The next test addresses Activated CDC42 kinase 1 (Homo sapiens, UniProt Q07912). Kind of test: Navigating the Kinome. Panel member name: ACK1. The class given is functional.
The target of test [13] is Serine/threonine-protein kinase Chk1 (Homo sapiens, UniProt O14757). The class given is functional.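 Also: measured as one member of a kinome-wide kinase profiling panel.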
Test [14] concerns the target Eukaryotic elongation factor 2 kinase (Homo sapiens, UniProt O00418). The class given is functional.
The target of test [15] is Non-receptor tyrosine-protein kinase TYK2 (Homo sapiens, UniProt P29597). In kind it is functional.
Test [16] concerns the target Macrophage colony-stimulating factor 1 receptor (Homo sapiens, UniProt P07333). In kind it is functional.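 Also: value comes from the Navigating the Kinome screening panel, CSF1R member.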
Test [17] has as its target Casein kinase I isoform delta (Homo sapiens, UniProt P48730). In kind it is functional.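 Also: measured as one member (CSNK1D) of a kinome panel.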
Test [18] has as its target Mast/stem cell growth factor receptor Kit (Homo sapiens, UniProt P10721). In kind it is functional.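 Also: KIT entry within a kinase panel assay.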
The target in test [19] is Tyrosine-protein kinase BTK (Homo sapiens, UniProt Q06187). The class given is functional.
For the next test, the target named is Caspase-9 (Homo sapiens, UniProt P55211). Kind of test: inhibitors of purified CASP9 protease – biochemical, fluorescence, plate reader, cherry-picked samples, selectivity assay for caspase-6 inhibitor project, dose response (AID 743293).
Test [20] concerns the target T1, Sentrin-specific protease 7 (Homo sapiens, UniProt Q9BQF6).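 Also: Luminescence-based dose-response confirmation of ultra-high-throughput screening hits, measuring inhibition of SENP7.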
T1 sequence (Q9BQF6 whole entry): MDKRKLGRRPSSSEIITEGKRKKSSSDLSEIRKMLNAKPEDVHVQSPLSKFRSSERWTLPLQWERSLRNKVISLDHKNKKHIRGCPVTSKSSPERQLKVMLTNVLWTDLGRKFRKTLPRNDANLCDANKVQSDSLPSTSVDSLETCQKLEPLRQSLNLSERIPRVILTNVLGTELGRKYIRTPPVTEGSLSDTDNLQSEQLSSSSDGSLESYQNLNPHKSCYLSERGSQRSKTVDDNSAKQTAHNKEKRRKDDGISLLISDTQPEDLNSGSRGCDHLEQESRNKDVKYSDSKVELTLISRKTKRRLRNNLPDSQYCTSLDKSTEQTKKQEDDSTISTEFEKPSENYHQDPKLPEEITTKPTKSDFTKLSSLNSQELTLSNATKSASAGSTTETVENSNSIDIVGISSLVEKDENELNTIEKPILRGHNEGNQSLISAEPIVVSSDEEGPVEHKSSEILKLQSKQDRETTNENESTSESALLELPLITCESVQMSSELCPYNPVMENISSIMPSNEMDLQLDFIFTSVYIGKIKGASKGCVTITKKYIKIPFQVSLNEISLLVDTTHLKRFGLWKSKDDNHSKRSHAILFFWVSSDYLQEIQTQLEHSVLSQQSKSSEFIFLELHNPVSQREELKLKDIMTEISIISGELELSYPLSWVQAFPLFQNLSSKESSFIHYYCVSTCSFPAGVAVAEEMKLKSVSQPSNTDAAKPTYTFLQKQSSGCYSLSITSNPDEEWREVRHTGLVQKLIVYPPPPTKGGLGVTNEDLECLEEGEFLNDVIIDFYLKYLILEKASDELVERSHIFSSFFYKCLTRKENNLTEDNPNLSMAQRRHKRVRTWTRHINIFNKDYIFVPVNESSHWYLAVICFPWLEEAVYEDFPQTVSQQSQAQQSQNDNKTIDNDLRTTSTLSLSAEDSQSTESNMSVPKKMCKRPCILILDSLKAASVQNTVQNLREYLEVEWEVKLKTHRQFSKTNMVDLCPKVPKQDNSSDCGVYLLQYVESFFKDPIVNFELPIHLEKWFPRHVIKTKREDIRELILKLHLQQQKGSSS
The class given is functional.

The next test deals with T2, Caspase-3 (Homo sapiens, UniProt P42574).
T2 sequence (P42574 whole entry): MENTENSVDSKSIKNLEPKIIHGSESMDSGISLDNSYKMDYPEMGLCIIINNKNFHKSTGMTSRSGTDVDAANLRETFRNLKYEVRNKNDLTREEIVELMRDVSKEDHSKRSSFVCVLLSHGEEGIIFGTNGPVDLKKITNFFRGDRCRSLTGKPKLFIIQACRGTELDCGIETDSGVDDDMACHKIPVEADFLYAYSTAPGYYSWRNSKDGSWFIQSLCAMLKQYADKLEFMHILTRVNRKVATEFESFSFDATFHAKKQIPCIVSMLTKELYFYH
Description: Dose-response confirmation of uHTS inhibitor hits of Sentrin-Specific Protease 8 in a Caspase-3 Fluorescence assay. In kind it is functional.

Calls of active or inactive are those of the source.

Activated CDC42 kinase 1, sequence (Q07912 whole entry): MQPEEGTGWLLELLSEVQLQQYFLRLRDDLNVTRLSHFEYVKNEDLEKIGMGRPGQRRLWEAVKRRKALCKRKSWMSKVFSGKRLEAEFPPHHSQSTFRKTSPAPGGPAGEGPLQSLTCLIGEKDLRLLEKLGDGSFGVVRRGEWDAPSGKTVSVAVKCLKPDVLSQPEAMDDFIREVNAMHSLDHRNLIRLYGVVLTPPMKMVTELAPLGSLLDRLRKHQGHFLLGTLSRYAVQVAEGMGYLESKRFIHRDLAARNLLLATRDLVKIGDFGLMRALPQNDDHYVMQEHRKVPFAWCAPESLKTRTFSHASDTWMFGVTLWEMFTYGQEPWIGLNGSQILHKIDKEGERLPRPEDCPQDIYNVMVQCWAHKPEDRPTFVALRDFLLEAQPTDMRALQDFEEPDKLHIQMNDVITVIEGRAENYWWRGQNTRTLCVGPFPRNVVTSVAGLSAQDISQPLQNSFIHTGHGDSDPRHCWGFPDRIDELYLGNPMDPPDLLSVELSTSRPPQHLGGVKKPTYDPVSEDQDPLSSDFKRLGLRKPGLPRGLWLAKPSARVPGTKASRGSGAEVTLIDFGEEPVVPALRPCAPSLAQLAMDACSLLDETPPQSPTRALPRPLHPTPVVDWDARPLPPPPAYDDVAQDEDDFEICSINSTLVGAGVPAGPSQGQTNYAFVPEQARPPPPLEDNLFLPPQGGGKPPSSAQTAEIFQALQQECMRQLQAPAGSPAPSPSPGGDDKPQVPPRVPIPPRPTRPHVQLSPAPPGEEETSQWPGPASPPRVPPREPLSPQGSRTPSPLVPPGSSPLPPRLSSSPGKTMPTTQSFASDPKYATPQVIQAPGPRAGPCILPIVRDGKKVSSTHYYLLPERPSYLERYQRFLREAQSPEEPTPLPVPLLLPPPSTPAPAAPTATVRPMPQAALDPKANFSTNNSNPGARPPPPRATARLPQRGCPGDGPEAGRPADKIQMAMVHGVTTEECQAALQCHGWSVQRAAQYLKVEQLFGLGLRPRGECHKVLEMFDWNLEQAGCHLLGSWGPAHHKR
Tyrosine-protein kinase Srms, sequence (Q9H3Y6 whole entry): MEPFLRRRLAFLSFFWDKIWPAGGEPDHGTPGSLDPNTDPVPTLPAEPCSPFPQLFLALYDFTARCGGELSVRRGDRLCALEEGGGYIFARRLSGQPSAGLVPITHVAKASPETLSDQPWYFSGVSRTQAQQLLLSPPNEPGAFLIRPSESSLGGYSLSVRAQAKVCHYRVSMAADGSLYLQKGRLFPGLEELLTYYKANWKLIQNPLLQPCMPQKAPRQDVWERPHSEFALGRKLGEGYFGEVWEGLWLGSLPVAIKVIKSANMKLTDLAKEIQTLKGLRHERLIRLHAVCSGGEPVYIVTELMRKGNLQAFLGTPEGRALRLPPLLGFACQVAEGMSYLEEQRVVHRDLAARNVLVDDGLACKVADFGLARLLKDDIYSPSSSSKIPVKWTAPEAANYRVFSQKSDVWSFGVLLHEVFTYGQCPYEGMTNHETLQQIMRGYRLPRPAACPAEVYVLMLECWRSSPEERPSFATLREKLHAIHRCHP
Caspase-9, sequence (P55211 1-315 limits assumed): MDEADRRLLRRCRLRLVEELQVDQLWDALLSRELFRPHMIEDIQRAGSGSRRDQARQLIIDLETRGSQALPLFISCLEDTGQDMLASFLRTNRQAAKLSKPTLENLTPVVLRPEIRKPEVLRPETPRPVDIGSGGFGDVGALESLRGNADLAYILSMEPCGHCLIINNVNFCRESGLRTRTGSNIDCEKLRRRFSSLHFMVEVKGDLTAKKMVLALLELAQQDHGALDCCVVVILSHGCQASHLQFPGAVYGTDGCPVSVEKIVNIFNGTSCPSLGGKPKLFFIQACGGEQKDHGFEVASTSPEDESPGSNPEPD
Caspase-9, sequence (P55211 331-416 limits assumed): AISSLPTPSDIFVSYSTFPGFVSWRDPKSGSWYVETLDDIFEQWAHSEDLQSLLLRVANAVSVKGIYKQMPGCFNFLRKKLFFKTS
Homeodomain-interacting protein kinase 4, sequence (Q8NE63 whole entry): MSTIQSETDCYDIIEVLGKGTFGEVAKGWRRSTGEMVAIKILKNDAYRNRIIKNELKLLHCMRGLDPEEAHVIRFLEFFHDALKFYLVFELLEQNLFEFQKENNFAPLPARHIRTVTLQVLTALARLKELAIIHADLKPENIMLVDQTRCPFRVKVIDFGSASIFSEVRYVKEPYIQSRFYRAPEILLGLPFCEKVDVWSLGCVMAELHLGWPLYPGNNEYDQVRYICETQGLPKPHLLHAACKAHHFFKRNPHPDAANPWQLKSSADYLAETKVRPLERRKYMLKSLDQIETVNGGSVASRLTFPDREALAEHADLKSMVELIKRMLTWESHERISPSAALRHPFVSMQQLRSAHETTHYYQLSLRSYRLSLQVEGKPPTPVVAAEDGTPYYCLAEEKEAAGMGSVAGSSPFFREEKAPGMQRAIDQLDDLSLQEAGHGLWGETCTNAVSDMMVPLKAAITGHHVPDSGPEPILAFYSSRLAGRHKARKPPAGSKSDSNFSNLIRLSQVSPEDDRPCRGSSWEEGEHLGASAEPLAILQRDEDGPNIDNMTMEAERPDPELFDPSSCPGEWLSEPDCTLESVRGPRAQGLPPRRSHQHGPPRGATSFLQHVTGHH
Serine/threonine-protein kinase Nek2, sequence (P51955 whole entry): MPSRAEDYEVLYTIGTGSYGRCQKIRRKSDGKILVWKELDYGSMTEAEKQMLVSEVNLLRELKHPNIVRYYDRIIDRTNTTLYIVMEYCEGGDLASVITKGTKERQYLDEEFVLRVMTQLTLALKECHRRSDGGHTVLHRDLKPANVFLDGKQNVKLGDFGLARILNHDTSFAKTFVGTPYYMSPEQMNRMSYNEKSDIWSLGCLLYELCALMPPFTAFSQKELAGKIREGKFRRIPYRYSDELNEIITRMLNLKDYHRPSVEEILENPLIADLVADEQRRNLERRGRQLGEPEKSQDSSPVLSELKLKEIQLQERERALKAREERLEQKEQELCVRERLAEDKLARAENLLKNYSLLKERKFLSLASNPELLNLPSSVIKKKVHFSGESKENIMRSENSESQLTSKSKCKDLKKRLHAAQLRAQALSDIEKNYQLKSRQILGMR
Macrophage colony-stimulating factor 1 receptor, sequence (P07333 whole entry, canonical isoform): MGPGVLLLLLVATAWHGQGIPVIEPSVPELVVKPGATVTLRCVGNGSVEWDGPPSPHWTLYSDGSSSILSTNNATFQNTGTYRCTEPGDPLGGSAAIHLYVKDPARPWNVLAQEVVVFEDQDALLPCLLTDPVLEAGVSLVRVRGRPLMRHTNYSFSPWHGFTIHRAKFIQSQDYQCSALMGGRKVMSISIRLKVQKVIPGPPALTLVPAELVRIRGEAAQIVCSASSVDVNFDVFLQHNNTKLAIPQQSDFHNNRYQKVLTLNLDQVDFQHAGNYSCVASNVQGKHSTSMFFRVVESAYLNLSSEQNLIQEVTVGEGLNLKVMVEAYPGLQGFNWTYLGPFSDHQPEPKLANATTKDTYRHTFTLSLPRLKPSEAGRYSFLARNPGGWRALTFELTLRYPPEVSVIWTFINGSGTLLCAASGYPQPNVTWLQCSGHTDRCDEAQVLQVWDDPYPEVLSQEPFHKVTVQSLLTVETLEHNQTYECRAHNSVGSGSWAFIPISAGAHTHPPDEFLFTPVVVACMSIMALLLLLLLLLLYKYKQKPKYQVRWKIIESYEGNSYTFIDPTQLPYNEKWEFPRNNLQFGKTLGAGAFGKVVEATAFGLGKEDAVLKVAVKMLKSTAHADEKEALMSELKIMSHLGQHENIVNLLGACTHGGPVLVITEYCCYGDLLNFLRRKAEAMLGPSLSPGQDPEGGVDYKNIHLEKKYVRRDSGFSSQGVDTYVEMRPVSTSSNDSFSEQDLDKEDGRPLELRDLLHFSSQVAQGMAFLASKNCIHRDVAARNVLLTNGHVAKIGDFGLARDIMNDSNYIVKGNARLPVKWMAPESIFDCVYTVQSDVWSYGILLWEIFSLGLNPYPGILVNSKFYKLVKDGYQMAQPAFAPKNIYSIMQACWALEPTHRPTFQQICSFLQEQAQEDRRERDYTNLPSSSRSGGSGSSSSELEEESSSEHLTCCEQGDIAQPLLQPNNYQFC
Tyrosine-protein kinase BTK, sequence (Q06187 whole entry): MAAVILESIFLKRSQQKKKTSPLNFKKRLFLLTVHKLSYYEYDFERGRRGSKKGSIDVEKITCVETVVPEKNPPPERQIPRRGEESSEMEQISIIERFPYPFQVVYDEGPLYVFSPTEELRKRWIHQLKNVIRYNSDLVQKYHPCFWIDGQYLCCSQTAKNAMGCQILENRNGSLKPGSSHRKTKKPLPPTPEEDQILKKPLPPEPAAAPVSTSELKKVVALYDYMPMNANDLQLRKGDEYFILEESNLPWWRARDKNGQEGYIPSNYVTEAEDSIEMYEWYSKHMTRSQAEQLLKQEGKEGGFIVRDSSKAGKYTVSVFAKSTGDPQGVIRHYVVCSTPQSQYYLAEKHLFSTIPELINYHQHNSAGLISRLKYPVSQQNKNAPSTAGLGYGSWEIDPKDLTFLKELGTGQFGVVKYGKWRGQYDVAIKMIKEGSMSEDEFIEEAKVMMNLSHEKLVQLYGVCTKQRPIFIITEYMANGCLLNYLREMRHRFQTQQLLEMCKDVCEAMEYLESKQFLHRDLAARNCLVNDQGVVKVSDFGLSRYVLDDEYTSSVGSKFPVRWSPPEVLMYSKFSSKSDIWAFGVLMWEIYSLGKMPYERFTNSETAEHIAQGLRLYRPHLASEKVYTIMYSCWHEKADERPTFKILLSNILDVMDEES
cAMP-dependent protein kinase catalytic subunit PRKX, sequence (P51817 whole entry): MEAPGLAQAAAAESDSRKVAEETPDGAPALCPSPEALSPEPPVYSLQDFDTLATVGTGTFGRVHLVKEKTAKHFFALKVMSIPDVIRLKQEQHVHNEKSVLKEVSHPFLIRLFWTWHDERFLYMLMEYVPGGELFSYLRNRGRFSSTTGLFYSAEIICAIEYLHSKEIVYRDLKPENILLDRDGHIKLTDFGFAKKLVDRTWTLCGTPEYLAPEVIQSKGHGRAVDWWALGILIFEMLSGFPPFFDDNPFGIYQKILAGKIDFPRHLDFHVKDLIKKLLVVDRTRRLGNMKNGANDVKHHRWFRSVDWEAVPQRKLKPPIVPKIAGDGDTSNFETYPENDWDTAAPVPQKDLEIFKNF

Regarding `CC(N)C1CCC(C(=O)Nc2ccnc3[nH]ccc23)CC1` (stereo not drawn), the Ki was > 6.31 µM (inactive) in test [1]; > 2 µM (inactive) in test [2]; > 7.94 µM (inactive) in test [3]; > 3.16 µM (inactive) in test [4]; 0.501 µM (active) in test [5]; > 3.98 µM (inactive) in [6]. The Ki in [7] is > 6.31 µM (inactive); in [8], 3.98 µM (active); in test [9], > 10 µM (inactive); in test [10] it was > 6.31 µM (inactive); in test [11], > 1.58 µM (inactive); in test [12] it was > 2 µM (inactive). In addition, the Ki at Activated CDC42 kinase 1 is > 3.98 µM (inactive); in test [13], > 7.94 µM (inactive); in [14] it was > 3.98 µM (inactive); in test [15], > 2 µM (inactive); in [16] it was > 2.51 µM (inactive); in [17], > 7.94 µM (inactive). In addition, the Ki is > 1.26 µM (inactive) in test [18] and > 3.98 µM (inactive) in [19].

On to `Cc1c(NC(=O)C(C)OC(=O)c2ccc([N+](=O)[O-])s2)c(=O)n(-c2ccccc2)n1C` (stereo not drawn), for which, on Caspase-9, the concentration at half-maximal activity (AC50) is 41.3 µM (active). In addition, the concentration for half-maximal inhibition (IC50) in [20] was 10.4 µM (active).

Regarding `COc1cc(Br)c(C(=O)c2nccc3cc(OC)c(OC)cc23)cc1OC`, the half-maximal inhibitory concentration (IC50) at Caspase-3 was 0.407 µM (active).
